Laboratory results as given in patent US20240351997A1, “NOVEL PARP7 INHIBITOR AND USE THEREOF” (SHANGHAI QILU PHARMACEUTICAL RESEARCH AND DEVELOPMENT …, priority 2021, published 2024).
pIC50: −log10 of the molar value. Blank lines part the entries; values can stand above or below the compound they belong to.

Experiments:
PARP7 = PARP7 (Homo sapiens (Human), UniProt Q7Z3E1); experiment: In vitro enzymology experiment of PARP7 (enzymatic inhibition); type: biochemical
Method in brief: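 Histone-coated plate ADP-ribosylation format: compound preincubated 10 min at room temperature with preincubated (25 °C, 10 min) enzyme mixture; incorporated biotin detected by streptavidin-HRP and QuantaRed fluorescence (Ex550/Em620).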

[1] = In vivo pharmacokinetic assay in rats (intravenous injection and oral administration); conditions: SD rats; for AUC / clearance / half-life / Vd / Cmax: male, rat, plasma; for Vd: read-out: Vss
Description: (§1) III. In Vivo Pharmacokinetic Assay in Mice and Rats
(§2) The pharmacokinetic behavior of the compound of the present disclosure in plasma after a single intravenous injection and oral administration was studied using male C57BL/6 mice or SD male rats as experimental animals.
(§3) Healthy adult C57BL/6 mice or SD rats (3 mice or rats per group), male, supplied by Shanghai Jihui Laboratory Animal Care Co., Ltd. and Vital River Laboratory Animal Technology Co., Ltd.
(§4) Both the intravenous injection and oral administration groups consisted of 3 mice or rats. The intravenous injection was at a dose of 1 mg/kg and in a volume of 5 mL/kg; the oral administration was at a dose of 5 mg/kg and in a volume of 10 mL/kg. The vehicle for administration was 5% DMSO/5% Kolliphor HS 15/90% Saline.
(§5) 2.3 Experimental Equipment
(§6) The centrifuge was purchased from Eppendorf, and the pipette was purchased from Eppendorf.
(§7) After the animals were administered, 0.02 mL of blood was collected from the vein at 0.0833 (IV), 0.25, 0.5, 1, 2, 4, 8, and 24 hours, respectively, placed in an EDTA-K2 test tube, centrifuged at 4600 rpm for 5 minutes at 4° C. to separate the plasma, and stored at −80° C.
(§8) 1) 10 μL of plasma sample was precipitated by adding 200 μL of acetonitrile, vortexed to mix, and centrifuged for 15 minutes.
(§9) 2) The treated supernatant was diluted with water, and the concentration of the test compound was analyzed by LC/MS/MS.
(§10) • Liquid phase conditions: Shimadzu LC-30AD • Mass spectrometry conditions: AB Sciex API 5500 • Chromatographic column: Phenomenex Kinetex 2.6 μm C18 • Mobile phases: A: 5 mM ammonium acetate aqueous solution (containing 0.05% formic acid); B: acetonitrile (containing 0.1% formic acid); flow rate: 0.5 mL/min
(§11) 3. Experimental Results and Analysis
(§12) Pharmacokinetic parameters were calculated using WinNonlin 8.0, and the pharmacokinetic parameters for intravenous injection and oral administration in mice or rats are shown in Table 2 and Table 3 below: […]

[2] = In vivo pharmacokinetic assay in mice (intravenous injection and oral administration); conditions: C57BL/6 mice; for AUC / clearance / half-life / Vd / Cmax: male, mouse, plasma; for Vd: read-out: Vss
Description: as §1, §2, §3, §4, §5, §6, §7, §8, §9, §10, §11, §12

Chain of PARP7 (Q7Z3E1 whole entry): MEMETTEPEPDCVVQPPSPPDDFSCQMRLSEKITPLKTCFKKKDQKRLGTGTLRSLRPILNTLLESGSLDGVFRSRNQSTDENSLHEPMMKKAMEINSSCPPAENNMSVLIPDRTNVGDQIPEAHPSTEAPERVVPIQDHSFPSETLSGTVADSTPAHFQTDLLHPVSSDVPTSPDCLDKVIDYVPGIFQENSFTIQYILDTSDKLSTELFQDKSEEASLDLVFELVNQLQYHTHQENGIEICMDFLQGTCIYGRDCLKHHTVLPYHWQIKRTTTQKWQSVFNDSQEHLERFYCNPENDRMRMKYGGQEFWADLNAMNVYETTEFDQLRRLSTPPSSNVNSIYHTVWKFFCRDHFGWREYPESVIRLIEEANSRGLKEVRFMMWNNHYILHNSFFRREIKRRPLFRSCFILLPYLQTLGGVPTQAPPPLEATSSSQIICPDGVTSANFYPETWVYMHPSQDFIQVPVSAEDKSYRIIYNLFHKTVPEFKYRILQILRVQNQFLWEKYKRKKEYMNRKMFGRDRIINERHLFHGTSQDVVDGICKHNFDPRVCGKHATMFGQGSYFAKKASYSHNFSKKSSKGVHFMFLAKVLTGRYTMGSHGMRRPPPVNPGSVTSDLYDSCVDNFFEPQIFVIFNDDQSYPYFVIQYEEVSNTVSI

Structure (SMILES): C[C@@H](Cc1c[nH]c(=O)c(C(F)(F)F)c1)OC(=O)N1CCN(c2ncc(C(F)(F)F)cn2)[C@@H](C)C1 [Example 93, (S)-1-(6-Oxo-5-(trifluoromethyl)-1,6-dihydropyridin-3-yl)propan-2-yl (S)-3-methyl-4-(5-(trifluoromethyl)pyrimidin-2-yl)piperazine-1-carboxylate]
- pIC50 (PARP7): 9.11
- F ([1]; oral administration, 5 mg/kg): 77%
- AUC ([1]; intravenous injection, 1 mg/kg): 978 ng·h/mL
- clearance ([1]; intravenous injection, 1 mg/kg): 16.7 mL/min/kg
- half-life ([1]; intravenous injection, 1 mg/kg): 1.9 h
- Vd ([1]; intravenous injection, 1 mg/kg): 1.9 L/kg
- AUC ([1]; oral administration, 5 mg/kg): 3830 ng·h/mL
- Cmax ([1]; oral administration, 5 mg/kg): 809 ng/mL

Structure (SMILES): C[C@@H](Cc1c[nH]c(=O)c(C(F)(F)F)c1)OC(=O)N1CCN(c2ncc(C(C)(C)O)cn2)CC1 [Example 100, (S)-1-(6-Oxo-5-(trifluoromethyl)-1,6-dihydropyridin-3-yl)propan-2-yl 4-(5-(2-hydroxypropan-2-yl)pyrimidin-2-yl)piperazine-1-carboxylate]
- pIC50 (PARP7): 9.21

Structure (SMILES): O=C(CCO[C@@H]1CCC[C@@H]1c1c[nH]c(=O)c(C(F)(F)F)c1)N1CCN(c2ncc(C(F)(F)F)cn2)CC1 [Example 47, 5-((1R,2R)-2-(3-Oxo-3-(4-(5-(trifluoromethyl)pyrimidin-2-yl)piperazin-1-yl)propoxy)cyclopentyl)-3-(trifluoromethyl)pyridin-2(1H)-one]
- pIC50 (PARP7): 8.14

Structure (SMILES): O=C(OCCc1c[nH]c(=O)c(C(F)(F)F)c1)N1CCN(c2ncc(C(F)(F)F)cn2)[C@H](CO)C1 [Example 111, 2-(6-Oxo-5-(trifluoromethyl)-1,6-dihydropyridin-3-yl)ethyl (S)-3-(hydroxymethyl)-4-(5-(trifluoromethyl)pyrimidin-2-yl)piperazine-1-carboxylate]
- pIC50 (PARP7): 9.21

Structure (SMILES): O=C(OCCc1c[nH]c(=O)c(C(F)(F)F)c1)N1CC2CCC(C1)N2c1ncc(C(F)(F)F)cn1 [Example 125, 2-(6-Oxo-5-(trifluoromethyl)-1,6-dihydropyridin-3-yl)ethyl 8-(5-(trifluoromethyl)pyrimidin-2-yl)-3,8-diazabicyclo[3.2.1]octane-3-carboxylate]
- pIC50 (PARP7): 9.15

Structure (SMILES): CC[C@@H]1CN(C(=O)OCCc2c[nH]c(=O)c(C(F)(F)F)c2)CCN1c1ncc(C(F)(F)F)cn1 [Example 123, 2-(6-Oxo-5-(trifluoromethyl)-1,6-dihydropyridin-3-yl)ethyl (R)-3-ethyl-4-(5-(trifluoromethyl)pyrimidin-2-yl)piperazine-1-carboxylate]
- pIC50 (PARP7): 9.06

Structure (SMILES): CC(Cc1c[nH]c(=O)c(C(F)(F)F)c1)OC(=O)N1CCN(c2ncccn2)CC1 (stereo not shown) [Example 42, 1-(6-Oxo-5-(trifluoromethyl)-1,6-dihydropyridin-3-yl)propan-2-yl 4-(pyrimidin-2-yl)piperazine-1-carboxylate]
- pIC50 (PARP7): 8.84

Structure (SMILES): Cc1cnc(N2C[C@@H](C)N(C(=O)O[C@@H](C)Cc3c[nH]c(=O)c(C(F)(F)F)c3)C[C@@H]2C)nc1 [Example 172, (S)-1-(6-Oxo-5-(trifluoromethyl)-1,6-dihydropyridin-3-yl)propan-2-yl (2R,5S)-2,5-dimethyl-4-(5-methylpyrimidin-2-yl)piperazine-1-carboxylate]
- pIC50 (PARP7): 9.08

The remaining lines, values ahead:

- pIC50 (PARP7): 9.28
- F ([1]; oral administration, 5 mg/kg): 35%
- AUC ([1]; intravenous injection, 1 mg/kg): 633 ng·h/mL
- clearance ([1]; intravenous injection, 1 mg/kg): 28.3 mL/min/kg
- half-life ([1]; intravenous injection, 1 mg/kg): 3.5 h
- Vd ([1]; intravenous injection, 1 mg/kg): 3.3 L/kg
- AUC ([1]; oral administration, 5 mg/kg): 1060 ng·h/mL
- Cmax ([1]; oral administration, 5 mg/kg): 434 ng/mL
- F ([2]; oral administration, 5 mg/kg): 52%
- AUC ([2]; intravenous injection, 1 mg/kg): 2570 ng·h/mL
- clearance ([2]; intravenous injection, 1 mg/kg): 6.67 mL/min/kg
- half-life ([2]; intravenous injection, 1 mg/kg): 4.2 h
- Vd ([2]; intravenous injection, 1 mg/kg): 1.5 L/kg
- AUC ([2]; oral administration, 5 mg/kg): 6760 ng·h/mL
- Cmax ([2]; oral administration, 5 mg/kg): 3750 ng/mL
Structure (SMILES): C[C@@H](Cc1c[nH]c(=O)c(C(F)(F)F)c1)OC(=O)N1CCN(c2ncc(C(F)(F)F)cn2)CC1 (single isomer, unassigned) [Example 35]

- pIC50 (PARP7): 9.42
- F ([1]; oral administration, 5 mg/kg): 99%
- AUC ([1]; intravenous injection, 1 mg/kg): 1060 ng·h/mL
- clearance ([1]; intravenous injection, 1 mg/kg): 15 mL/min/kg
- half-life ([1]; intravenous injection, 1 mg/kg): 2.3 h
- Vd ([1]; intravenous injection, 1 mg/kg): 2.1 L/kg
- AUC ([1]; oral administration, 5 mg/kg): 5380 ng·h/mL
- Cmax ([1]; oral administration, 5 mg/kg): 1310 ng/mL
- F ([2]; oral administration, 5 mg/kg): 72%
- AUC ([2]; intravenous injection, 1 mg/kg): 8100 ng·h/mL
- clearance ([2]; intravenous injection, 1 mg/kg): 1.67 mL/min/kg
- half-life ([2]; intravenous injection, 1 mg/kg): 6.3 h
- Vd ([2]; intravenous injection, 1 mg/kg): 0.6 L/kg
- AUC ([2]; oral administration, 5 mg/kg): 29600 ng·h/mL
- Cmax ([2]; oral administration, 5 mg/kg): 8490 ng/mL
Structure (SMILES): C[C@@H]1CN(c2ncc(C(F)(F)F)cn2)CCN1C(=O)OCCc1c[nH]c(=O)c(C(F)(F)F)c1 [Example 109, 2-(6-Oxo-5-(trifluoromethyl)-1,6-dihydropyridin-3-yl)ethyl (R)-2-methyl-4-(5-(trifluoromethyl)pyrimidin-2-yl)piperazine-1-carboxylate]

- pIC50 (PARP7): 8.74
- F ([1]; oral administration, 5 mg/kg): 47%
- AUC ([1]; intravenous injection, 1 mg/kg): 5740 ng·h/mL
- clearance ([1]; intravenous injection, 1 mg/kg): 3.33 mL/min/kg
- half-life ([1]; intravenous injection, 1 mg/kg): 4.7 h
- Vd ([1]; intravenous injection, 1 mg/kg): 0.9 L/kg
- AUC ([1]; oral administration, 5 mg/kg): 13800 ng·h/mL
- Cmax ([1]; oral administration, 5 mg/kg): 2350 ng/mL
- F ([2]; oral administration, 5 mg/kg): 80%
- AUC ([2]; intravenous injection, 1 mg/kg): 10400 ng·h/mL
- clearance ([2]; intravenous injection, 1 mg/kg): 1.5 mL/min/kg
- half-life ([2]; intravenous injection, 1 mg/kg): 6.1 h
- Vd ([2]; intravenous injection, 1 mg/kg): 0.6 L/kg
- AUC ([2]; oral administration, 5 mg/kg): 42200 ng·h/mL
- Cmax ([2]; oral administration, 5 mg/kg): 9310 ng/mL
Structure (SMILES): O=C(OCCc1c[nH]c(=O)c(C(F)(F)F)c1)N1CCN(c2ncc(C(F)(F)F)cn2)CC1 [Example 3, 2-(6-Oxo-5-(trifluoromethyl)-1,6-dihydropyridin-3-yl)ethyl 4-(5-(trifluoromethyl)pyrimidin-2-yl)piperazine-1-carboxylate]

- pIC50 (PARP7): 9.12
Structure (SMILES): Cc1[nH]c(=O)c(C(F)(F)F)cc1C[C@H](C)OC(=O)N1CCN(c2ncc(C(F)(F)F)cn2)CC1 [Example 133, (S)-1-(2-Methyl-6-oxo-5-(trifluoromethyl)-1,6-dihydropyridin-3-yl)propan-2-yl 4-(5-(trifluoromethyl)pyrimidin-2-yl)piperazine-1-carboxylate]

- pIC50 (PARP7): 9.14
Structure (SMILES): Cc1cc(Cc2c[nH]c(=O)c(C(F)(F)F)c2)cc(C(=O)N2CCN(c3ncc(C(F)(F)F)cn3)CC2)c1 [Example 61, 5-(3-Methyl-5-(4-(5-(trifluoromethyl)pyrimidin-2-yl)piperazine-1-carbonyl)benzyl)-3-(trifluoromethyl)pyridin-2(1H)-one]

- pIC50 (PARP7): 9.04
Structure (SMILES): O=C(O[C@@H]1CCC[C@H]1c1c[nH]c(=O)c(C(F)(F)F)c1)N1CCN(c2ncc(C(F)(F)F)cn2)CC1 (single isomer, unassigned) [Example 70]

- pIC50 (PARP7): 8.55
Structure (SMILES): O=C(COC[C@@H]1CCCN1c1c[nH]c(=O)c(C(F)(F)F)c1)N1CCN(c2ncc(C(F)(F)F)cn2)CC1 [Example 7, (S)-5-(2-((2-Oxo-2-(4-(5-(trifluoromethyl)pyrimidin-2-yl)piperazin-1-yl)ethoxy)methyl)pyrrolidin-1-yl)-3-(trifluoromethyl)pyridin-2(1H)-one]
